These results are taken from patent publication US7662814B2, “4-aminothieno[2,3-d]pyrimidine-6-carbonitrile derivatives as PDE7 inhibitors” (Laboratorios Almirall, S.A., priority 2003, dated 2010).

What is called melting point is the temperature of the solid-liquid transition.

Consider `CCCCNc1nc(-c2cc(OC)c(OC)c(OC)c2)nc2sc(C#N)c(C)c12` [Example 69, 4-(Butylamino)-5-methyl-2-(3,4,5-trimethoxyphenyl)thieno[2,3-d]pyrimidine-6-carbonitrile], for which the melting point lay within 192 to 194 °C. The figure for `CCC(C)Nc1nc(Cc2cc(OC)c(OC)c(OC)c2)nc2sc(C#N)c(C)c12` (centres unmarked) [Example 114, 4-(sec-Butylamino)-5-methyl-2-(3,4,5-trimethoxybenzyl)thieno[2,3-d]pyrimidine-6-carbonitrile] is 134 to 137 °C.

Consider `CCN(C)c1nc(-c2ccc(OC)cc2)nc2sc(C#N)c(C)c12` [Example 17, 4-[Ethyl(methyl)amino]-2-(4-methoxyphenyl)-5-methylthieno[2,3-d]pyrimidine-6-carbonitrile], for which the melting point lay in the range of 122 to 123 °C.

As to `CCN(C)c1nc(-c2ccc(OC)c(OC)c2)nc2sc(C#N)c(C)c12` [Example 26, 2-(3,4-Dimethoxyphenyl)-4-[ethyl(methyl)amino]-5-methylthieno[2,3-d]pyrimidine-6-carbonitrile], the melting point lay within 133 to 135 °C. In the case of `Cc1c(C#N)sc2nc(-c3ccc(Cl)cc3)nc(N3CCN(C)CC3)c12` [Example 15, 2-(4-Chlorophenyl)-5-methyl-4-(4-methylpiperazin-1-yl)thieno[2,3-d]pyrimidine-6-carbonitrile] it was 209 to 210 °C; in that of `Cc1c(C#N)sc2nc(CCCc3ccccc3)nc(N3CCN(C)CC3)c12` [Example 130, 5-Methyl-4-(4-methylpiperazin-1-yl)-2-(3-phenylpropyl)thieno[2,3-d]pyrimidine-6-carbonitrile], 101 to 103 °C.

As for `COc1ccc(-c2nc(N3CCCCC3)c3c(C)c(C#N)sc3n2)cc1` [Example 6, 2-(4-Methoxyphenyl)-5-methyl-4-piperidin-1-ylthieno[2,3-d]pyrimidine-6-carbonitrile], the melting point is 202 to 204 °C.

As to `COc1ccc(Cc2nc(N3CCOCC3)c3c(C)c(C#N)sc3n2)cc1OC` [Example 92, 2-(3,4-Dimethoxybenzyl)-5-methyl-4-morpholin-4-ylthieno[2,3-d]pyrimidine-6-carbonitrile], the melting point lay within 67 to 70 °C. The figure for `CNc1nc(Cc2cc(OC)c(OC)c(OC)c2)nc2sc(C#N)c(C)c12` [Example 110, 5-Methyl-4-(methylamino)-2-(3,4,5-trimethoxybenzyl)thieno[2,3-d]pyrimidine-6-carbonitrile] is 194 to 195 °C; for `Cc1c(C#N)sc2nc(-c3ccccc3)nc(N3CCNCC3)c12` [Example 8, 5-Methyl-2-phenyl-4-piperazin-1-ylthieno[2,3-d]pyrimidine-6-carbonitrile] it is 251 to 253 °C.

The compound `Cc1c(C#N)sc2nc(-c3ccc4c(c3)OCO4)nc(N3CCN(C)CC3)c12` [Example 34] displayed a melting point of 196 to 197 °C. The figure for `C#CCN(C)c1nc(-c2ccc(OC)cc2)nc2sc(C#N)c(C)c12` [Example 24, 2-(4-Methoxyphenyl)-5-methyl-4-[methyl(prop-2-ynyl)amino]thieno[2,3-d]pyrimidine-6-carbonitrile] is 160 to 171 °C; for `CCC(CC)Nc1nc(Cc2cc(OC)c(OC)c(OC)c2)nc2sc(C#N)c(C)c12` [Example 115, 4-[(1-Ethylpropyl)amino]-5-methyl-2-(3,4,5-trimethoxybenzyl)thieno[2,3-d]pyrimidine-6-carbonitrile] it is 127 to 129 °C. In the case of `CCN(CC)c1nc(-c2ccc3c(c2)OCO3)nc2sc(C#N)c(C)c12` [Example 36, 2-(1,3-Benzodioxol-5-yl)-4-(diethylamino)-5-methylthieno[2,3-d]pyrimidine-6-carbonitrile] it was 199 to 201 °C; in that of `COCCNc1nc(Cc2ccc(OC)c(OC)c2)nc2sc(C#N)c(C)c12` [Example 106, 2-(3,4-Dimethoxybenzyl)-4-[(2-methoxyethyl)amino]-5-methylthieno[2,3-d]pyrimidine-6-carbonitrile], 94 to 97 °C; in that of `COc1cc(-c2nc(NCCC(=O)O)c3c(C)c(C#N)sc3n2)cc(OC)c1OC` [Example 87, N-[6-Cyano-5-methyl-2-(3,4,5-trimethoxyphenyl)thieno[2,3-d]pyrimidin-4-yl]-beta-alanine], 222 to 225 °C. In the case of `Cc1ccc(-c2nc(N3CCOCC3)c3c(C)c(C#N)sc3n2)cc1` [Example 32, 5-Methyl-2-(4-methylphenyl)-4-morpholin-4-ylthieno[2,3-d]pyrimidine-6-carbonitrile] it was 206 to 207 °C; in that of `CCN1CCN(c2nc(-c3ccccc3)nc3sc(C#N)c(C)c23)CC1` [Example 1, 4-(4-Ethylpiperazin-1-yl)-5-methyl-2-phenylthieno[2,3-d]pyrimidine-6-carbonitrile], 178 to 179 °C. For the compound `COc1cc(Cc2nc(NC(C)(C)C)c3c(C)c(C#N)sc3n2)cc(OC)c1OC` [Example 116, 4-(tert-Butylamino)-5-methyl-2-(3,4,5-trimethoxybenzyl)thieno[2,3-d]pyrimidine-6-carbonitrile], the melting point was in the range of 146 to 148 °C. In the case of `CCN(C)c1nc(-c2ccncc2)nc2sc(C#N)c(C)c12` [Example 38, 4-[Ethyl(methyl)amino]-5-methyl-2-pyridin-4-ylthieno[2,3-d]pyrimidine-6-carbonitrile] it was 162 to 164 °C. The figure for `COc1ccc(-c2nc(N(C)CCO)c3c(C)c(C#N)sc3n2)cc1` [Example 25, 4-[(2-Hydroxyethyl)(methyl)amino]-2-(4-methoxyphenyl)-5-methylthieno[2,3-d]pyrimidine-6-carbonitrile] is 144 to 146 °C; for `Cc1c(C#N)sc2nc(-c3ccccc3)nc(N3CCCCC3)c12` [Example 4, 5-Methyl-2-phenyl-4-piperidin-1-ylthieno[2,3-d]pyrimidine-6-carbonitrile] it is 142 to 144 °C; for `CCN1CCN(c2nc(-c3ccc(OC)cc3)nc3sc(C#N)c(C)c23)CC1` [Example 2, 4-(4-Ethylpiperazin-1-yl)-2-(4-methoxyphenyl)-5-methylthieno[2,3-d]pyrimidine-6-carbonitrile] it is 173 to 175 °C. The figure for `CCCCN(CCCC)c1nc(-c2ccc(OC)cc2)nc2sc(C#N)c(C)c12` [Example 14, 4-(Dibutylamino)-2-(4-methoxyphenyl)-5-methylthieno[2,3-d]pyrimidine-6-carbonitrile] is 96 to 98 °C.

As to `Cc1c(C#N)sc2nc(-c3ccncc3)nc(N(C)CCO)c12` [Example 42, 4-[(2-Hydroxyethyl)(methyl)amino]-5-methyl-2-pyridin-4-ylthieno[2,3-d]pyrimidine-6-carbonitrile], the melting point fell in the range of 194 to 195 °C. The figure for `CCN(CC)c1nc(Cc2ccc(OC)c(OC)c2)nc2sc(C#N)c(C)c12` [Example 101, 4-(Diethylamino)-2-(3,4-dimethoxybenzyl)-5-methylthieno[2,3-d]pyrimidine-6-carbonitrile] is 107 to 109 °C; for `CCN(C)c1nc(-c2cc(OC)cc(OC)c2)nc2sc(C#N)c(C)c12` [Example 55, 2-(3,5-Dimethoxy-phenyl)-4-(ethyl-methyl-amino)-5-methyl-thieno[2,3-d]pyrimidine-6-carbonitrile] it is 145 to 148 °C. The figure for `CCNc1nc(-c2cc(OC)cc(OC)c2)nc2sc(C#N)c(C)c12` [Example 134] is 207 to 208 °C; for `COc1ccc(Cc2nc(N(C)CCO)c3c(C)c(C#N)sc3n2)cc1OC` [Example 105, 2-(3,4-Dimethoxybenzyl)-4-[(2-hydroxyethyl)(methyl)amino]-5-methylthieno[2,3-d]pyrimidine-6-carbonitrile] it is 62 to 63 °C; for `COc1cc(-c2nc(N3CCN(C(C)=O)CC3)c3c(C)c(C#N)sc3n2)cc(OC)c1OC` [Example 85, 4-(4-Acetylpiperazin-1-yl)-5-methyl-2-(3,4,5-trimethoxyphenyl)thieno[2,3-d]pyrimidine-6-carbonitrile] it is 211 to 213 °C. The figure for `COc1ccc(-c2nc(N3CCNCC3)c3c(C)c(C#N)sc3n2)cc1` [Example 12, 2-(4-Methoxyphenyl)-5-methyl-4-piperazin-1-ylthieno[2,3-d]pyrimidine-6-carbonitrile] is 210 to 212 °C; for `COc1cc(-c2nc(N(C)CCN(C)C)c3c(C)c(C#N)sc3n2)cc(OC)c1OC` [Example 107, 4-[[2-(Dimethylamino)ethyl](methyl)amino]-5-methyl-2-(3,4,5-trimethoxyphenyl) thieno[2,3-d]pyrimidine-6-carbonitrile] it is 125 to 127 °C; for `COc1ccc(-c2nc(N3CCCC3)c3c(C)c(C#N)sc3n2)cc1` [Example 11, 2-(4-Methoxyphenyl)-5-methyl-4-pyrrolidin-1-ylthieno[2,3-d]pyrimidine-6-carbonitrile] it is 176 to 178 °C. Turning to `Cc1c(C#N)sc2nc(-c3ccccc3)nc(N3CCN(C)CC3)c12` [Example 50, 5-Methyl-4-(4-methyl-piperazin-1-yl)-2-phenyl-thieno[2,3-d-]pyrimidine-6-carbonitrile], the melting point is 223 to 225 °C. For `COc1cc(-c2nc(NC3CCCC3)c3c(C)c(C#N)sc3n2)cc(OC)c1OC` [Example 77, 4-(Cyclopentylamino)-5-methyl-2-(3,4,5-trimethoxyphenyl)thieno[2,3-d]pyrimidine-6-carbonitrile], the melting point fell in the range of 218 to 220 °C. In the case of `Cc1ccc(-c2nc(N3CCN(C)CC3)c3c(C)c(C#N)sc3n2)cc1` [Example 27, 5-Methyl-2-(4-methylphenyl)-4-(4-methylpiperazin-1-yl)thieno[2,3-d]pyrimidine-6-carbonitrile] it was 207 to 209 °C; in that of `C=CCN(C)c1nc(-c2ccc(OC)cc2)nc2sc(C#N)c(C)c12` [Example 29, 4-[Allyl(methyl)amino]-2-(4-methoxyphenyl)-5-methylthieno[2,3-d]pyrimidine-6-carbonitrile], 126 to 128 °C; in that of `C=CCN(C)c1nc(Cc2ccc(OC)c(OC)c2)nc2sc(C#N)c(C)c12` [Example 102, 4-[Allyl(methyl)amino]-2-(3,4-dimethoxybenzyl)-5-methylthieno[2,3-d]pyrimidine-6-carbonitrile], 98 to 100 °C.
